Measurements as given in patent publication US20180169047A1, “AMINO ACID COMPOSITIONS AND METHODS FOR THE TREATMENT OF MUSCLE DISEASES AND DISORDERS” (AXCELLA HEALTH INC., priority 2016, published 2018).

Columns and labels:
[1] = system: mTORC1; assay: mTORC1 activity assay: rpS6 phosphorylation (AlphaScreen SureFire) in C2C12 myotubes; type: cell-based, mouse; design: key to mTOR: statistically significant assay result: statistically significant assay results between 2X and 5X doses; ns - not significant; NT - not tested; conditions: for Avg fold change of intracellular rpS6 phosphorylation (P-rpS6) compared to untreated cells: C2C12 myotubes, 30 min, normalized to total protein; for mTOR: statistically significant assay result: between 2X and 5X doses, compared to untreated control
Description: Metabolism is controlled by the mTORC1 signaling complex, an essential protein kinase that regulates cellular processes such as protein synthesis and autophagy. A number of distinct signals control mTORC1 activity, including amino acids and growth factors like insulin, and proper regulation is necessary for the maintenance of muscle mass. Dysregulation of mTORC1 activity is associated with muscle wasting (atrophy) in many diseases, and conversely, addition of muscle mass (hypertrophy) requires protein synthesis-inducing mTORC1 signaling. The ability of different amino acids to induce mTORC1 signaling in myotubes was assessed using an alpha-elisa screen for phosphorylated ribosomal protein S6 (P-rpS6), an important substrate downstream of mTORC1 involved in promoting protein synthesis.
In this example, murine muscle cells were incubated with a composition including amino acids and assessed for mTORC1 activation. C2C12, mouse muscle cells, were obtained from ATCC (CRL-1772, Manassas, VA). The cells were seeded on day 0 at 1.0E4 cells per well in 96-well TC-treated microplates (Corning, Corning, NY) in Dulbecco's Modified Eagle Medium (DMEM, Corning) supplemented with 10% fetal bovine serum (Corning) and 0.2% Primocin (InVivoGen, San Diego, Calif.) and incubated for 48 hours at 37° C., 5% CO2. On day 2, the medium was changed to DMEM (Corning) supplemented with 2% horse serum (Horse Serum, New Zealand origin, ThermoFisher, Waltham, MA) and 0.2% Primocin. On day 5, the medium was replaced with fresh DMEM supplemented with 2% horse serum and 0.2% Primocin.
On day 7, the DMEM supplemented with 2% horse serum and 0.2% Primocin was replaced with amino acid free DMEM (US Biologicals, Salem, Mass.) containing a defined custom amino acid concentration based on 0.5× the mean physiological concentrations in blood based on values published in the Human Metabolome Database (HMDB (Wishart DS, Tzur D, Knox C, et al., HMDB: the Human Metabolome Database. Nucleic Acids Res. 2007 January; 35 (Database issue):D521-6. 17202168), with 25 mM Glucose, 1 mM Sodium Pyruvate and incubated for 2 hours at 37° C., 5% CO2. Next, the cell medium was replaced with amino acid free DMEM (US Biologicals, Salem, Mass.) containing a defined custom amino acid concentration based on 0.5× the mean physiological concentrations in blood based on values published in the HMDB and a dose curve of defined amino acid compositions listed in Table 5 at 4 doses relative to plasma levels (1×, 2×, 5× and 10×; as defined by mean amino acid concentrations in the HMDB database). Combinations containing N-acetylcysteine were dosed with 0.2 mM. Cells were treated for 30 min at 37° C., 5% CO2. After treatment, the cells were washed lx in 100uL cold phosphate-buffered saline 1×, pH 7.2 (PBS, ThermoFisher). For the detection of the intracellular rpS6 phosphorylation, the AlphaScreen SureFire cellular kinase assay kit (rpS6 ([…]) and the AlphaScreen protein A kit (PerkinElmer, Waltham, Mass.) were used.
Data are presented as fold change of intracellular rpS6 phosphorylation in C2C12 myotubes normalized to the total protein amount compared to untreated cells. […] Statistical significance was determined by one-way ANOVA for each composition dose relative to untreated.

[2] = system: C2C12 myotubes; assay: Myotube growth assay: myotube area in C2C12 myotubes; type: cell-based, murine; design: key to GROWTH: statistically significant assay result: statistically significant assay results between 2X and 5X doses; ns - not significant; NT - not tested; conditions: for myotube growth dose response, Avg myotube area normalized to nuclear count: untreated = 1.000; for GROWTH: statistically significant assay result: between 2X and 5X doses, compared to untreated control
Description: Myotubes are multi-nucleated and elongated cells that express master regulators of skeletal muscle gene expression including MyoD and Myogenin. Myotubes are formed by differentiating myoblasts (muscle progenitor cells) for approximately 1 week. Once formed, myotubes size can be promoted (e.g. insulin) or inhibited (e.g. myostatin) with various molecules in order to assess effects on muscle size in vitro. C2C12 cells are commonly-used murine myogenic cells that upon differentiation form myotubes. C2C12 myotubes were used to test whether specific amino acid compositions can promote growth in vitro.
C2C12 murine myoblast cells (ATCC CRL-1772) were seeded on day 0 at 1.0E4 cells per well in collagen I coated 96-well optical polymer microplates (ThermoFisher) in Dulbecco's Modified Eagle Medium (DMEM, Corning) supplemented with 10% heat inactivated fetal bovine serum (HI-FBS, Atlanta Biologicals) and 0.2% Primocin (InVivoGen) and incubated overnight at 37° C., 5% CO2. On day 1, media was washed and differentiation media (DMEM supplemented with 2% horse serum) was added to the cells and fresh differentiation media was also applied on Day 3. On Day 6, cells were washed with amino acid-free DMEM and then treated with basal growth media containing 0.2% dialyzed FBS and all amino acids at 0.25× concentrations found in plasma based on values reported in the Human Metabolome Database (HMDB).
Fresh growth media and AA treatments were applied a second time on Day 8. On day 10, media was removed and cells were incubated in pre-warmed 4% Paraformaldehyde in PBS for 12 mins at room temperature and then washed 3× in PBS. Immunostaining with MHC (MF-20, University of Iowa Developmental Hybridoma Studies bank) was performed according to cell signaling general immunofluorescence protocol. Briefly, fixed cells were incubated in blocking buffer (5% normal goat serum 0.3% triton PBS) for 30-60 minutes, and then incubated overnight at 4° C. in primary antibody 1:1000 in antibody dilution buffer (1% BSA 0.3% triton in PBS). The next day the plate was equilibrated to room temperature, washed 3 times for 5 minutes in room temperature PBS and then with secondary antibody (Fab′ anti-mouse Alexa488, 1:2000) in antibody dilution buffer for 1-2 hours. Cells were washed 2 times for 5 minutes, incubated in Hoechst stain (Mol Probes 1:4000) for 10 minutes at room temperature, and washed an additional 2 times five minutes each in PBS. Molecular device HCS was used for image acquisition and analysis. Imaging was performed with a 10× wide field objective at both GFP and UV channels (FITC and DAPI) and analysis was performed using a modified version of the angiogenesis module in the MetaExpress Software measuring average total myotube area, myotube breadth, total nuclear counts, fused nuclear counts, and unfused nuclear counts.

[3] = system: C2C12 murine myoblast cells; assay: Myogenesis assay: myotube differentiation of C2C12 myoblasts, MHC immunostaining; type: cell-based; design: key to MYOGENESIS: statistically significant assay result: statistically significant assay results between 2X and 5X doses; ns - not significant; NT - not tested; conditions: for myogenesis dose response, Avg fold-change to untreated: C2C12 myoblasts differentiated 4 days
Description: Myogenesis is the process of forming skeletal muscle fibers (myofibers) which contain the minimal contractile units (sarcomeres) responsible for force transduction and load bearing in higher eukaryotes. During development single nucleated myogenic cells fuse, differentiate, and induce expression of the cytoskeletal complexes required for muscle contraction. A highly similar process is induced in response to muscle injury where satellite cells, or skeletal muscle stem cells, are activated, differentiate and fuse with damaged myofibers, thereby contributing myonuclei and supporting muscle repair. C2C12 cells are murine myogenic cells that, upon differentiation, fuse to form multi-nucleated myotubes (primitive myofibers) that express master regulators of muscle-specific gene expression, for example myosin heavy chain, a critical component of sarcomeres. C2C12 cells were selected as a model of myogenesis and used to test whether specific amino acid compositions would promote formation of myotubes and expression of the myotube-specific marker myosin heavy chain.
C2C12 murine myoblast cells were obtained from ATCC (CRL-1772) and seeded on day 0 at 1.0E4 cells per well in collagen I coated 96-well optical polymer microplates (ThermoFisher) in Dulbecco's Modified Eagle Medium (DMEM, Corning) supplemented with 10% heat inactivated fetal bovine serum (HI-FBS, Atlanta Biologicals) and 0.2% Primocin (InVivoGen) and incubated overnight at 37° C., 5% CO2. […] Cells were differentiated for 4 days at 37° C., 5% CO2 with a media replenishment and an additional amino acid composition or control treatment on Day 3. On day 5, the media was removed and cells were incubated in pre-warmed 4% Paraformaldehyde in PBS for 12 mins at room temperature and then washed 3× in PBS.
Immunostaining with MHC (MF-20, University of Iowa Developmental Hybridoma Studies bank) was performed according to cell signaling general immunofluorescence protocol. Briefly, fixed cells were incubated in blocking buffer (5% normal goat serum 0.3% triton PBS) for 30 to 60 minutes, and then incubated overnight at 4° C. in primary antibody 1:1000 in antibody dilution buffer (1% BSA 0.3% triton in PBS). The next day the plate was equilibrated to room temperature, washed 3 times for 5 minutes in room temperature PBS and then with secondary antibody (Fab' anti-mouse Alexa488, 1:2000) in antibody dilution buffer for 1-2 hours. Cells were washed two times for 5 minutes, incubated in Hoechst stain (Mol Probes 1:4000) for 10 minutes at room temperature, and washed an additional two times for five minutes each in PBS. Molecular device HCS was used for image acquisition and analysis. Imaging was performed with a 10× wide field objective at both GFP and UV channels (FITC and DAPI) and analysis was performed using a custom module in the MetaExpress Software measuring average FITC intensity, integrated FITC intensity, and nuclear counts.
The data is the average of 3 independent experiments.

[4] = dose 1X relative to plasma levels
[5] = dose 2X relative to plasma levels
[6] = dose 5X relative to plasma levels
[7] = dose 10X relative to plasma levels
[8] = C2C12 myotubes, dose 1.25X relative to plasma levels
[9] = C2C12 myotubes, dose 2.5X relative to plasma levels
[10] = C2C12 myotubes, dose 5X relative to plasma levels
[11] = C2C12 myotubes, dose 10X relative to plasma levels

Row | SMILES | Avg fold change of intracellular rpS6 phosphorylation (P-rpS6) compared to untreated cells [1, 4] [fold change] | Avg fold change of intracellular rpS6 phosphorylation (P-rpS6) compared to untreated cells [1, 5] [fold change] | Avg fold change of intracellular rpS6 phosphorylation (P-rpS6) compared to untreated cells [1, 6] [fold change] | Avg fold change of intracellular rpS6 phosphorylation (P-rpS6) compared to untreated cells [1, 7] [fold change] | mTOR: statistically significant assay result [1] | myotube growth dose response, Avg myotube area normalized to nuclear count [2, 8] | myotube growth dose response, Avg myotube area normalized to nuclear count [2, 9] | myotube growth dose response, Avg myotube area normalized to nuclear count [2, 10] | myotube growth dose response, Avg myotube area normalized to nuclear count [2, 11] | GROWTH: statistically significant assay result [2] | myogenesis dose response, Avg fold-change to untreated ([3]; dose 1.25X relative to HMDB plasma levels) [fold-change] | myogenesis dose response, Avg fold-change to untreated ([3]; dose 2.5X relative to HMDB plasma levels) [fold-change] | myogenesis dose response, Avg fold-change to untreated ([3]; dose 5X relative to HMDB plasma levels) [fold-change] | myogenesis dose response, Avg fold-change to untreated ([3]; dose 10X relative to HMDB plasma levels) [fold-change] | MYOGENESIS: statistically significant assay result ([3]; between 2X and 5X doses, compared to untreated control) | area of myotubes in the culture well (in words) ([2]; C2C12 myotubes, across two experiments)
1 | CC(=O)N[C@@H](CS)C(=O)O [Nac, N-acetylcysteine] | 0.9198 | 0.8626 | 0.8741 | 0.9485 | ns | 1.121 | 1.036 | 1.153 | 1.267 | ns |  |  |  |  |  | 
2 | NC(=O)CC[C@H](N)C(=O)O [Q, glutamine] | 1.052 | 0.9176 | 0.8748 | 0.8139 | ns | 1.235 | 1.202 | 1.075 | 1.077 | ns | 1.127 | 1.066 | 1.087 | 1.041 | ns | no effect or were inhibitory
